Measurements published in patent US11708338B2, “Substituted phenyl sulfonyl phenyl triazole thiones and uses thereof” (Neuropore Therapies, Inc., priority 2017, dated 2023).

How the values were obtained:
Format in all cases: in vivo, mouse
[1] = tested on: insoluble alpha-synuclein deposits (PK+resistant); assay: IHC quantification of insoluble (PK+resistant) alpha-synuclein deposits in brain, 1 month administration study; details: L61 ASYN transgenic mice, FIG. 9A
Protocol: Multiple in vivo administration studies of Compound 1 were carried out in the Line 61 (L61) mThy1-alpha-synuclein transgenic mouse model of Parkinson's disease (PD). The mThy1-alpha-synuclein transgenic mouse model overexpresses wild-type human ASYN under the Thy-1 promoter studies (commonly referred to as Line 61 transgenic mice; Rockenstein et al., 2002). […]
Alpha-synuclein (ASYN) is a neuronal protein whose dysregulation has been implicated in the pathogenesis of PD. The effects of Compound 1 on alpha-synuclein aggregation were assessed in both L61 ASYN transgenic and non-transgenic mice in a 1 month administration study. […] At the end of one month, the mice were sacrificed, and immunohistochemical (IHC) detection of total alpha-synuclein deposits, insoluble alpha-synuclein deposits (PK+resistant), microtubule-associated protein 1A/1B-light chain 3 (LC3), and monomeric alpha-synuclein levels were assessed in the harvested brain tissues.
The quantification and IHC staining of PK-resistant alpha-synuclein were performed using known techniques (Rockenstein et al., J Neurosci Res. 2002, 68(5):568-78; Tanji et al., Acta Neuropathol. 2010, 120, 145-154; Nuber et al., Brain. 2013, February; 136(Pt 2):412-32).

[2] = tested on: Translocator Protein (18 kDa) (TSPO); assay: TSPO immunofluorescence in cortex of L61 mice, 3 month administration study; details: L61 ASYN transgenic mice, 5 and 10 mg/kg i.p. daily, 3 months
Protocol: Compound 1 was injected into L61 ASYN transgenic mice and non-transgenic control mice (i.p., once daily) at doses of 5 and 10 mg/kg for 3 months (79 total mice, n=14-17 mice per treatment group). The vehicle control consisted of a solution containing 5% DMSO+20% Cremphor EL+0.9% normal saline. The baseline grip strength of mice was evaluated prior to starting treatments for the 3 month study, and then re-evaluated following 70 days of treatment with vehicle or Compound 1 (5 or 10 mg/kg, i.p. daily).
Neuroinflammation is associated with increased expression of the 18-kDa translocator protein (TSPO), which is a marker for inflammation and is present on the mitochondria of activated microglia, astroglia and macrophages (Crawshaw and Robertson 2017). The effects of Compound 1 on the levels of Translocator Protein (18 kDa) (TSPO) were assessed in both L61 ASYN transgenic and non-transgenic mice in the aforementioned 3 month administration study. At the end of the study, the mice were sacrificed, and immunofluorescence (IF) detection of TSPO were assessed in the harvested brain tissues.
FIGS. 15A-B show the levels of TSPO immunolabeling in representative cross-sections of the cortex of the mice. […]

[3] = tested on: microtubule-associated protein 1A/1B-light chain 3 (LC3); assay: LC3 immunolabeling (IHC) in brain, 1 month administration study; details: L61 ASYN transgenic mice, 1, 5 or 10 mg/kg per day i.p.
Protocol: (§1) Alpha-synuclein (ASYN) is a neuronal protein whose dysregulation has been implicated in the pathogenesis of PD. The effects of Compound 1 on alpha-synuclein aggregation were assessed in both L61 ASYN transgenic and non-transgenic mice in a 1 month administration study. L61 ASYN transgenic mice (36 total mice, n=8-11 mice per treatment group) were injected (i.p.) with 1, 5, or 10 mg/kg of Compound 1 or a vehicle control (5% DMSO+20% Cremphor EL+0.9% normal saline) per day for 1 month. Non-transgenic mice (18 total mice, n=8-11 mice per treatment group) were used as a control and were injected daily (i.p.) with 10 mg/kg of Compound 1 or a vehicle control (5% DMSO+20% Cremphor EL+0.9% normal saline) per day for 1 month. At the end of one month, the mice were sacrificed, and immunohistochemical (IHC) detection of total alpha-synuclein deposits, insoluble alpha-synuclein deposits (PK+resistant), microtubule-associated protein 1A/1B-light chain 3 (LC3), and monomeric alpha-synuclein levels were assessed in the harvested brain tissues.

[4] = tested on: total alpha-synuclein (ASYN); assay: IHC quantification of total alpha-synuclein deposits in brain, 1 month administration study; details: for reduction of total alpha-synuclein level in cortex as compared to vehicle control: L61 ASYN transgenic mice, FIG. 7A
Protocol: Multiple in vivo administration studies of Compound 1 were carried out in the Line 61 (L61) mThy1-alpha-synuclein transgenic mouse model of Parkinson's disease (PD). The mThy1-alpha-synuclein transgenic mouse model overexpresses wild-type human ASYN under the Thy-1 promoter studies (commonly referred to as Line 61 transgenic mice; Rockenstein et al., 2002). This transgenic mouse develops extensive accumulation of alpha-synuclein (ASYN) in areas relevant to PD (Rockenstein et al., 2002; Chesselet et al., 2012; Games et al., 2013), neurodegeneration including dopaminergic neurodegeneration, reduced dopamine (DA) and TH loss in the striatum (Masliah et al., 2000; Lam et al., 2011), and motor deficits (Fleming et al., 2004). Male transgenic and non-transgenic littermates (3-3.5 mo) were used for all in vivo studies presented here.
as §1
The quantification and IHC staining of total alpha-synuclein were performed using known techniques (Rockenstein et al., J Neurosci Res. 2002, 68(5):568-78; Tanji et al., Acta Neuropathol. 2010, 120, 145-154; Nuber et al., Brain. 2013, February; 136(Pt 2):412-32).

[5] = L61 ASYN transgenic mice, 1, 5 or 10 mg/kg per day i.p.

Q: Which results are given for `O=S(=O)(c1ccc(-n2cn[nH]c2=S)cc1)c1ccc(Cl)c(C(F)(F)F)c1` [Compound 1, 4-(4-((4-chloro-3-(trifluoromethyl)phenyl)sulfonyl)phenyl)-2,4-dihydro-3H-1,2,4-triazole-3-thione]?
A: reduction of PK-resistant alpha synuclein levels in cortex as compared to vehicle-treated mice ([1]; 5 mg/kg daily i.p.): 37%; reduction of PK-resistant alpha synuclein levels in cortex as compared to vehicle-treated mice ([1]; 10 mg/kg daily i.p.): 36%; levels of TSPO in cortex vs vehicle control [2]: significantly decreased; levels of LC3 immunolabeling in cortex [3]: increased; levels of LC3 immunolabeling in hippocampus (increase) [3]: not; levels of LC3 immunolabeling in striatum [3]: increased; reduction of total alpha-synuclein level in cortex as compared to vehicle control ([4]; 1 mg/kg per day i.p.): 13%; reduction of total alpha-synuclein level in cortex as compared to vehicle control ([4]; 5 mg/kg per day i.p.): 32%; reduction of total alpha-synuclein level in cortex as compared to vehicle control ([4]; 10 mg/kg per day i.p.): 38%; total ASYN in the neuropil of cortex vs vehicle control [4, 5]: reduced; total ASYN in the neuropil of hippocampus vs vehicle control [4, 5]: reduced; total ASYN in the neuropil of striatum vs vehicle control [4, 5]: reduced
